Patent publication US20230278996A1, “YKL-40 INHIBITORS AND THEIR THERAPEUTIC APPLICATIONS” (Molecure S.A., priority 2022, published 2023)
pIC50: −log10 of the molar value. Where a name gives a salt, the structure may show the parent alone.

Biological target: YKL-40 (Homo sapiens (Human), UniProt P36222)
Assay: YKL-40:4 assay, competitive chitin binding site AlphaScreen
Settings: competition with biotinylated compound 4 (20 nM), YKL-40-histag 2.5 nM

YKL-40, sequence (P36222 22-383): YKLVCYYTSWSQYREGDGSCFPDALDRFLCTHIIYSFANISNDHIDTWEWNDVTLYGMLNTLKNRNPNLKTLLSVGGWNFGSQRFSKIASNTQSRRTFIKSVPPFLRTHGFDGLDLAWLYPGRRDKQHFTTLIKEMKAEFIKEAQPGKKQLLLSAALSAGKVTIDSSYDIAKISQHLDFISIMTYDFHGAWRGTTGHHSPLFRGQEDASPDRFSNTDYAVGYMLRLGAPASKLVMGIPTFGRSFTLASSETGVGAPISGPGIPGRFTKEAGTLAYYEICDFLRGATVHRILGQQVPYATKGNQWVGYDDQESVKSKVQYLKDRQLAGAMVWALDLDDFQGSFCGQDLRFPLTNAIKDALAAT

| SMILES | pIC50 |
| --- | --- |
| O=C1c2ccccc2C(=O)N1C[C@H]1CN(C2CCN(c3ncccn3)CC2)[C@@H](Cc2ccc(Cl)cc2)CO1 [compound 76, 2-(((2R,5S)-5-(4-chlorobenzyl)-4-(1-(pyrimidin-2-yl)piperidin-4-yl)morpholin-2-yl)methyl)isoindoline-1,3-dione dihydrochloride] | < 4.00 |
| Clc1ccc(C[C@H]2COCCN2C2CCN(c3ccccn3)CC2)cc1 [compound 88, (S)-3-(4-chlorobenzyl)-4-(1-(pyridin-2-yl)piperidin-4-yl)morpholine 2,2,2-trifluoroacetate] | 6.00 to 7.00 |
| C[C@H]1CN(C2CCN(c3cc(C(=O)O)ccn3)CC2)[C@@H](Cc2ccc(Cl)cc2)CO1 [compound 125, 2-(4-((2S,5S)-5-(4-chlorobenzyl)-2-methylmorpholino)piperidin-1-yl)isonicotinic acid 2,2,2-trifluoroacetate] | < 4.00 |
| C[C@H]1CN(C2CCN(c3cncc(C(F)(F)F)n3)CC2)[C@@H](Cc2ccc(Cl)cc2)CO1 [compound 153, (2S,5S)-5-(4-chlorobenzyl)-2-methyl-4-(1-(6-(trifluoromethyl)pyrazin-2-yl)piperidin-4-yl)morpholine hydrochloride] | < 4.00 |
| CC1(O)CCN(C2CCN(c3ccccn3)CC2)[C@@H](Cc2ccc(Cl)cc2)C1 (stereo partly drawn) [compound 92, (2S)-2-(4-chlorobenzyl)-4-methyl-1′-(pyridin-2-yl)-[1,4′-bipiperidin]-4-ol 2,2,2-trifluoroacetate] | > 7.00 |
| C[C@H]1CN(C2CCN(c3c(C(=O)O)ccnc3F)CC2)[C@@H](Cc2ccc(Cl)cc2)CO1 [compound 129, 3-(4-((2S,5S)-5-(4-chlorobenzyl)-2-methylmorpholino)piperidin-1-yl)-2-fluoroisonicotinic acid] | < 4.00 |
| CN1C[C@H](Cc2ccc(Cl)cc2)N(C2CCN(c3ccccn3)CC2)CC12CCC2 [compound 148, (S)-7-(4-chlorobenzyl)-5-methyl-8-(1-(pyridin-2-yl)piperidin-4-yl)-5,8-diazaspiro[3.5]nonane hydrochloride] | 6.00 to 7.00 |
| C[C@H]1CN(C2CCN(c3c(F)cccc3C#N)CC2)[C@@H](Cc2ccc(Cl)cc2)CO1 [compound 118, 2-(4-((2S,5S)-5-(4-chlorobenzyl)-2-methylmorpholino)piperidin-1-yl)-3-fluorobenzonitrile 2,2,2-trifluoroacetate] | < 4.00 |
| C[C@H]1CN(C2CCN(c3nccc(C(=O)O)c3F)CC2)[C@@H](Cc2ccc(Cl)cc2)CO1 [compound 128, 2-(4-((2S,5S)-5-(4-chlorobenzyl)-2-methylmorpholino)piperidin-1-yl)-3-fluoroisonicotinic acid 2,2,2-trifluoroacetate] | < 4.00 |
| CNC(=O)[C@H]1CN(C2CCN(c3ccccn3)CC2)[C@@H](Cc2ccc(Cl)cc2)CO1 [compound 154, (2R,5S)-5-(4-chlorobenzyl)-N-methyl-4-(1-(pyridin-2-yl)piperidin-4-yl)morpholine-2-carboxamide hydrochloride] | 6.00 to 7.00 |
| C[C@H](O)CN1C[C@H](Cc2ccc(Cl)cc2)N(C2CCN(c3ccccn3)CC2)C[C@@H]1C [compound 104, (S)-1-((2S,5S)-5-(4-chlorobenzyl)-2-methyl-4-(1-(pyridin-2-yl)piperidin-4-yl)piperazin-1-yl)propan-2-ol 2,2,2-trifluoroacetate] | > 7.00 |
| Cc1ccc(N2CCC(N3C[C@H](C)OC[C@@H]3Cc3ccc(Cl)cc3)CC2)nc1 [compound 136, (2S,5S)-5-(4-chlorobenzyl)-2-methyl-4-(1-(5-methylpyridin-2-yl)piperidin-4-yl)morpholine hydrochloride] | < 4.00 |
| C[C@H]1CN(C2CCN(c3ncc(C(F)(F)F)o3)CC2)[C@@H](Cc2ccc(Cl)cc2)CO1 [compound 168, (2S,5S)-5-(4-chlorobenzyl)-2-methyl-4-(1-(5-(trifluoromethyl)oxazol-2-yl)piperidin-4-yl)morpholine 2,2,2-trifluoroacetate] | < 4.00 |
| C[C@H]1CN(C2CCN(c3ccnc(F)c3)CC2)[C@@H](Cc2ccc(Cl)cc2)CO1 [Example 15, (2S,5S)-5-(4-chlorobenzyl)-4-(1-(2-fluoropyridin-4-yl)piperidin-4-yl)-2-methylmorpholine 2,2,2-trifluoroacetate] | 5.00 to 6.00 |
| C[C@H]1CN(C2CCN(c3cccc(C#N)n3)CC2)[C@@H](Cc2ccc(Cl)cc2)CO1 [Example 18, 6-(4-((2S,5S)-5-(4-chlorobenzyl)-2-methylmorpholino)piperidin-1-yl)picolinonitrile 2,2,2-trifluoroacetate] | < 4.00 |
| C[C@H]1CN(C2CCN(c3ncccc3CO)CC2)[C@@H](Cc2ccc(Cl)cc2)CO1 [compound 120, (2-(4-((2S,5S)-5-(4-chlorobenzyl)-2-methylmorpholino)piperidin-1-yl)pyridin-3-yl)methanol 2,2,2-trifluoroacetate] | < 4.00 |
| C[C@H]1CN(C2CCN(C(=O)OC(C)(C)C)CC2)[C@@H](Cc2ccc(Cl)cc2)CO1 [Example 8d, tert-butyl 4-((2S,5S)-5-(4-chlorobenzyl)-2-methylmorpholino)piperidine-1-carboxylate] | < 4.00 |
| O=C1COC[C@H](Cc2ccc(Cl)cc2)N1C1CCN(c2ccccn2)CC1 [compound 147, (S)-5-(4-chlorobenzyl)-4-(1-(pyridin-2-yl)piperidin-4-yl)morpholin-3-one hydrochloride] | < 4.00 |
| C[C@H]1CN(C2CCN(c3ncccc3C(F)(F)F)CC2)[C@@H](Cc2ccc(Cl)cc2)CO1 [compound 49, (2S,5S)-5-(4-chlorobenzyl)-2-methyl-4-(1-(3-(trifluoromethyl)pyridin-2-yl)-piperidin-4-yl)morpholine 2,2,2-trifluoroacetate] | 4.00 to 5.00 |
| C[C@H]1CN(C2CCN(c3ncnc(O)n3)CC2)[C@@H](Cc2ccc(Cl)cc2)CO1 [compound 170, 4-(4-((2S,5S)-5-(4-chlorobenzyl)-2-methylmorpholino)piperidin-1-yl)-1,3,5-triazin-2-ol 2,2,2-trifluoroacetate] | < 4.00 |
| C[C@H]1CN(C2CCN(c3ccccn3)C(=O)C2)[C@@H](Cc2ccc(Cl)cc2)CO1 (stereo partly drawn) [compound 85, 4-((2S,5S)-5-(4-chlorobenzyl)-2-methylmorpholino)-1-(pyridin-2-yl)piperidin-2-one 2,2,2-trifluoroacetate] | 4.00 to 5.00 |
| C[C@H]1CN(C2CCN(c3nccc4ccccc34)CC2)[C@@H](Cc2ccc(Cl)cc2)CO1 [compound 116, (2S,5S)-5-(4-chlorobenzyl)-4-(1-(isoquinolin-1-yl)piperidin-4-yl)-2-methylmorpholine 2,2,2-trifluoroacetate] | < 4.00 |

Next, values leading:

| pIC50 | SMILES |
| --- | --- |
| 5.00 to 6.00 | CC1CC(N2C[C@H](C)OC[C@@H]2Cc2ccc(Cl)cc2)CCN1c1cc(Cl)ccn1 (single isomer, unassigned) [Example 31, 2,2,2-trifluoroacetate] |
| 5.00 to 6.00 | CN1CCN(C[C@H]2CN(C3CCN(c4ncccn4)CC3)[C@@H](Cc3ccc(Cl)cc3)CO2)CC1 [compound 71, (2S,5S)-5-(4-chlorobenzyl)-2-((4-methylpiperazin-1-yl)methyl)-4-(1-(pyrimidin-2-yl)piperidin-4-yl)morpholine 2,2,2-trifluoroacetate] |
| 5.00 to 6.00 | O[C@H]1CCN(C[C@H]2CN(C3CCN(c4ncccn4)CC3)[C@@H](Cc3ccc(Cl)cc3)CO2)C1 [compound 74, (S)-1-(((2S,5S)-5-(4-chlorobenzyl)-4-(1-(pyrimidin-2-yl)piperidin-4-yl)morpholin-2-yl)methyl)pyrrolidin-3-ol 2,2,2-trifluoroacetate] |
| 6.00 to 7.00 | Cc1ccnc(N2CCC(N3C[C@H](C)OC[C@@H]3Cc3ccc(Cl)cc3)CC2)c1C#N [compound 47, 2-(4-((2S,5S)-5-(4-chlorobenzyl)-2-methylmorpholino)piperidin-1-yl)-4-methyl-nicotinonitrile 2,2,2-trifluoroacetate] |
| 5.00 to 6.00 | O=C1CCC(=O)N1C[C@H]1CN(C2CCN(c3ncccn3)CC2)[C@@H](Cc2ccc(Cl)cc2)CO1 [compound 77, 1-(((2R,5S)-5-(4-chlorobenzyl)-4-(1-(pyrimidin-2-yl)piperidin-4-yl)morpholin-2-yl)methyl)pyrrolidine-2,5-dione 2,2,2-trifluoroacetate] |
| 6.00 to 7.00 | COCCOCCOCCOCCOCCOCCOCCOCCOCCOCCOCCOCCC(=O)OC[C@H]1CN(C2CCN(c3ccccn3)CC2)[C@@H](Cc2ccc(Cl)cc2)CO1 [Example 7, ((2R,5S)-5-(4-chlorobenzyl)-4-(1-(pyridin-2-yl)piperidin-4-yl)morpholin-2-yl)methyl 2,5,8,11,14,17,20,23,26,29,32,35-dodecaoxaoctatriacontan-38-oate 2,2,2-trifluoroacetate] |
| 6.00 to 7.00 | C[C@H]1CN(C2CCN(c3ccccn3)CC2)[C@@H](Cc2ccc(Cl)cc2)CN1CC(=O)NC1CC1 [compound 103, 2-((2S,5S)-5-(4-chlorobenzyl)-2-methyl-4-(1-(pyridin-2-yl)piperidin-4-yl)piperazin-1-yl)-N-cyclopropylacetamide 2,2,2-trifluoroacetate] |
| 5.00 to 6.00 | C[C@H]1CN(C2CCN(c3ncccc3Cl)CC2)[C@@H](Cc2ccc(Cl)cc2)CO1 [Example 23, (2S,5S)-5-(4-chlorobenzyl)-4-(1-(3-chloropyridin-2-yl)piperidin-4-yl)-2-methylmorpholine 2,2,2-trifluoroacetate] |
| 6.00 to 7.00 | C[C@H]1CN(C2CCN(c3ccc(Cl)cn3)CC2)[C@@H](Cc2ccc(Cl)cc2)CO1 [Example 11, (2S,5S)-5-(4-chlorobenzyl)-4-(1-(5-chloropyridin-2-yl)piperidin-4-yl)-2-methylmorpholine 2,2,2-trifluoroacetate] |
| > 7.00 | CC1CC(N2C[C@H](C)OC[C@@H]2Cc2ccc(Cl)cc2)CCN1c1cc(Cl)ccn1 (single isomer, unassigned) [Example 32, 2,2,2-trifluoroacetate] |
| 6.00 to 7.00 | C[C@H]1CN(c2ccc(-c3ccccn3)cc2)[C@@H](Cc2ccc(Cl)cc2)CO1 [compound 159, (2S,5S)-5-(4-chlorobenzyl)-2-methyl-4-(4-(pyridin-2-yl)phenyl)morpholine hydrochloride] |
| 6.00 to 7.00 | Cc1ccnc(N2CCC(N3C[C@H](C)OC[C@@H]3Cc3ccc(Cl)cc3)CC2)n1 [Example 39, (2S,5S)-5-(4-chlorobenzyl)-2-methyl-4-(1-(4-methylpyrimidin-2-yl)piperidin-4-yl)morpholine dihydrochloride] |
